Data published in patent US20240417411A1, “COMPOUNDS AND METHODS FOR TREATMENT OF VIRAL INFECTIONS” (priority 2023, published 2024).
Structures can show the parent of a compound that is named as a salt. Where two headings read alike, the source gives them in different places.

Legend:
SARS-CoV2-NLuc = experiment: microbe, parasite or virus in culture; assay type: cell-based, SARS Coronavirus 2; conditions: Severe acute respiratory syndrome coronavirus 2, 48 h, read-out: SARS-CoV2 EC50 (nM)
RSV-Luc5 = experiment: microbe, parasite or virus in culture; assay type: cell-based; conditions: human respiratory syncytial virus, NHBE, 72 h, read-out: RSV NHBE EC50 (nM)
in vitro [1] = assay type: cell-based; conditions: human
In short: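 Uninfected MT4 cells cultured with compound 4–5 days at 37 °C, equilibrated to 25 °C, and viability read by CellTiter-Glo luminescence. Untreated and 2 μM puromycin-treated cells defined 100% and 0% viability; CC50, the concentration reducing viability by 50%, from non-linear regression.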

in vitro [2] = assay type: in vitro ADME; conditions: human, s9, pH 7.4
In short: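 Test compounds at 2 μM final were incubated in a GI S9 reaction mixture, reactions being started by substrate addition. Diluted supernatants were quantified by LC/MS on a Q-Exactive using analyte/internal standard peak area ratios, with 0.1% formic acid water/acetonitrile gradient elution and 5 ppm mass tolerance.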

[3] = 2 μM
[4] = system: Caco-2 cells (clone C2BBe1); conditions: human
in vitro [5] = conditions: human, plasma

| SMILES | EC50 (SARS-CoV2-NLuc) [nM] | EC50 (RSV-Luc5) [nM] | CC50 (in vitro [1]) [µM] | half-life at 2 μM (in vitro [2]) [min] | Human Plasma T1/2 [3] [min] | Caco2 A to B ([4]; Caco-2) | Caco2 B to A ([4]; Caco-2) | half-life at 2 μM (in vitro [5]) [min] | half-life (in vitro [5]) [min] | Caco2 A to B ([4]; Caco-2, 2 h) | Caco2 B to A ([4]; Caco-2, 2 h) |
| --- | --- | --- | --- | --- | --- | --- | --- | --- | --- | --- | --- |
| CC(C)OC(=O)OC[C@H]1O[C@@](C#N)(c2ccc3c(N)ncnn23)[C@@H]2OC(=O)CCCCCC(=O)O[C@@H]21 [Compound C6, ((9aR,10R,12R,12aR)-12-(4-aminopyrrolo[2,1-f][1,2,4]triazin-7-yl)-12-cyano-2,8-dioxodecahydro-2H-furo[3,4-b][1,4]dioxacycloundecin-10-yl)methyl isopropyl carbonate] | > 50000 | 1460 | > 50 | 0.637 | 3 | 11.12 | 11.68 |  |  |  |  |
| CC(C)OC(=O)OC[C@H]1O[C@@](C#N)(c2ccc3c(N)ncnn23)[C@@H]2OC(=O)CCCCC(=O)O[C@@H]21 [Compound C7, ((8aR,9R,11R,11aR)-11-(4-aminopyrrolo[2,1-f][1,2,4]triazin-7-yl)-11-cyano-2,7-dioxodecahydrofuro[3,4-b][1,4]dioxecin-9-yl)methyl isopropyl carbonate] | > 50000 | 2730 | > 50 | 0.596 | 3 | 4.31 | 9.89 |  |  |  |  |
| CC(C)OC(=O)OC[C@H]1O[C@@](C#N)(c2ccc3c(N)ncnn23)[C@@H]2OC(=O)CCOCCC(=O)O[C@@H]21 [Compound C8, ((9aR,10R,12R,12aR)-12-(4-aminopyrrolo[2,1-f][1,2,4]triazin-7-yl)-12-cyano-2,8-dioxooctahydro-2H,6H-furo[3,4-b][1,4,8]trioxacycloundecin-10-yl)methyl isopropyl carbonate] | > 50000 | 3350 | > 50 | 0.687 | 3 | 1.56 | 10.63 |  |  |  |  |
| N#C[C@@]1(c2ccc3c(N)ncnn23)O[C@H](COC(=O)OC2CCCC2)[C@H]2OC(=O)CCCC(=O)O[C@H]21 [Compound C20, ((7aR,8R,10R,10aR)-10-(4-aminopyrrolo[2,1-f][1,2,4]triazin-7-yl)-10-cyano-2,6-dioxooctahydro-2H-furo[3,4-b][1,4]dioxonin-8-yl)methyl cyclopentyl carbonate] | 11700 | 27900 | > 50 |  | 3 |  |  |  |  |  |  |
| CCC(CC)COC(=O)OC[C@H]1O[C@@](C#N)(c2ccc3c(N)ncnn23)[C@@H]2OC(=O)CCCC(=O)O[C@@H]21 [Compound C21, ((7aR,8R,10R,10aR)-10-(4-aminopyrrolo[2,1-f][1,2,4]triazin-7-yl)-10-cyano-2,6-dioxooctahydro-2H-furo[3,4-b][1,4]dioxonin-8-yl)methyl (2-ethylbutyl) carbonate] | 1440 | 6600 | > 50 | 0.637 | 3 |  |  |  |  |  |  |
| N#CC1(COC(=O)OC[C@H]2O[C@@](C#N)(c3ccc4c(N)ncnn34)[C@@H]3OC(=O)CCCC(=O)O[C@@H]32)CC1 [Compound C24, ((7aR,8R,10R,10aR)-10-(4-aminopyrrolo[2,1-f][1,2,4]triazin-7-yl)-10-cyano-2,6-dioxooctahydro-2H-furo[3,4-b][1,4]dioxonin-8-yl)methyl ((1-cyanocyclopropyl)methyl) carbonate] | 11500 | 7760 | > 50 | 0.565 | 3 |  |  |  |  |  |  |
| N#C[C@@]1(c2ccc3c(N)ncnn23)O[C@H](COC(=O)OC(CF)CF)[C@H]2OC(=O)CCCC(=O)O[C@H]21 [Compound C27, ((7aR,8R,10R,10aR)-10-(4-aminopyrrolo[2,1-f][1,2,4]triazin-7-yl)-10-cyano-2,6-dioxooctahydro-2H-furo[3,4-b][1,4]dioxonin-8-yl)methyl (1,3-difluoropropan-2-yl) carbonate] | 7400 | 9810 | > 50 | 0.617 | 3 |  |  |  |  |  |  |
| COC(=O)[C@H]([C@@H](C)OC(=O)OC[C@H]1O[C@@](C#N)(c2ccc3c(N)ncnn23)[C@@H]2OC(=O)CCCC(=O)O[C@@H]21)N(C)C [Compound C31, (2S,3R)-methyl 3-(((((7aR,8R,10R,10aR)-10-(4-aminopyrrolo[2,1-f][1,2,4]triazin-7-yl)-10-cyano-2,6-dioxooctahydro-2H-furo[3,4-b][1,4]dioxonin-8yl)methoxy)carbonyl)oxy)-2-(dimethylamino)butanoate 2,2,2-trifluoroacetate] | 6060 | 9190 | > 50 | 0.57 |  | 0.49 | 5.62 | 15.5 |  |  |  |
| CC1(C)CC(=O)O[C@H]2[C@@H](OC(=O)C1)[C@](C#N)(c1ccc3c(N)ncnn13)O[C@@H]2COC(=O)OC1CCOCC1 [Compound C33, ((7aR,8R,10R,10aR)-10-(4-aminopyrrolo[2,1-f][1,2,4]triazin-7-yl)-10-cyano-4,4-dimethyl-2,6-dioxooctahydro-2H-furo[3,4-b][1,4]dioxonin-8-yl)methyl (tetrahydro-2H-pyran-4-yl) carbonate] | > 50000 | > 50000 | > 50 | 29 |  | 0.41 | 3.17 |  | 609 |  |  |
| CC1(C)CC(=O)O[C@H]2[C@@H](OC(=O)C1)[C@](C#N)(c1ccc3c(N)ncnn13)O[C@@H]2COC(=O)OC1CCOC1 (stereo partly drawn) [Compound C40, ((7aR,8R,10R,10aR)-10-(4-aminopyrrolo[2,1-f][1,2,4]triazin-7-yl)-10-cyano-4,4-dimethyl-2,6-dioxooctahydro-2H-furo[3,4-b][1,4]dioxonin-8-yl)methyl (tetrahydrofuran-3-yl) carbonate] | > 50000 | > 50000 | > 50 | 5.83 |  | 0.69 | 5.13 | 72.5 |  |  |  |
| CN1[C@@H]2CC[C@H]1C[C@@H](OC(=O)OC[C@H]1O[C@@](C#N)(c3ccc4c(N)ncnn34)[C@@H]3OC(=O)CC(C)(C)CC(=O)O[C@@H]31)C2 [Compound C47, ((7aR,8R,10R,10aR)-10-(4-aminopyrrolo[2,1-f][1,2,4]triazin-7-yl)-10-cyano-4,4-dimethyl-2,6-dioxooctahydro-2H-furo[3,4-b][1,4]dioxonin-8-yl)methyl ((1R,3s,5S)-8-methyl-8-azabicyclo[3.2.1]octan-3-yl) carbonate formate] | > 50000 | > 50000 | > 50 | 99.4 |  |  |  | 60.2 |  | 0.04 | 5.19 |
| COC(=O)[C@H]([C@@H](C)OC(=O)OC[C@H]1O[C@@](C#N)(c2ccc3c(N)ncnn23)[C@@H]2OC(=O)CC(C)(C)CC(=O)O[C@@H]21)N(C)C [Compound C48, (2S,3R)-methyl 3-(((((7aR,8R,10R,10aR)-10-(4-aminopyrrolo[2,1-f][1,2,4]triazin-7-yl)-10-cyano-4,4-dimethyl-2,6-dioxooctahydro-2H-furo[3,4-b][1,4]dioxonin-8-yl)methoxy)carbonyl)oxy)-2-(dimethylamino)butanoate] | > 50000 | > 50000 | > 50 | 29.5 |  | 0.22 | 1.81 | 20.3 |  |  |  |
| CC(C)OC(=O)OC[C@H]1O[C@@](C#N)(c2ccc3c(N)ncnn23)[C@@H]2OC(=O)OCCC=CCCOC(=O)O[C@@H]21 [Compound C52, ((12aR,13R,15R,15aR)-15-(4-aminopyrrolo[2,1-f][1,2,4]triazin-7-yl)-15-cyano-2,11-dioxo-4,5,8,9,12a,13,15,15a-octahydrofuro[3,4-d][1,3,6,8]tetraoxacyclotetradecin-13-yl)methyl isopropyl carbonate] | 7100 | 1600 | > 50 | 0.6 |  | 6.77 | 11.87 |  | 1580 |  |  |
| CC(C)OC(=O)OC[C@H]1O[C@@](C#N)(c2ccc3c(N)ncnn23)[C@@H]2OC(=O)OCCCCCCOC(=O)O[C@@H]21 [Compound C53, ((12aR,13R,15R,15aR)-15-(4-aminopyrrolo[2,1-f][1,2,4]triazin-7-yl)-15-cyano-2,11-dioxodecahydrofuro[3,4-d][1,3,6,8]tetraoxacyclotetradecin-13-yl)methyl isopropyl carbonate] | 9660 | 1330 | > 50 | 0.691 |  | 9.28 | 15.92 | 317 |  |  |  |
| CC(=O)OC[C@H]1O[C@@](C#N)(c2ccc3c(N)ncnn23)[C@@H]2OC(=O)CCCC(=O)O[C@@H]21 [Compound C55, ((7aR,8R,10R,10aR)-10-(4-aminopyrrolo[2,1-f][1,2,4]triazin-7-yl)-10-cyano-2,6-dioxooctahydro-2H-furo[3,4-b][1,4]dioxonin-8-yl)methyl acetate] | 3300 | 2070 | > 50 |  | 3 |  |  |  |  |  |  |
| CCC(=O)OC[C@H]1O[C@@](C#N)(c2ccc3c(N)ncnn23)[C@@H]2OC(=O)CCCC(=O)O[C@@H]21 [Compound C56, ((7aR,8R,10R,10aR)-10-(4-aminopyrrolo[2,1-f][1,2,4]triazin-7-yl)-10-cyano-2,6-dioxooctahydro-2H-furo[3,4-b][1,4]dioxonin-8-yl)methyl propionate] | 4580 | 2300 | > 50 |  | 3 |  |  |  |  |  |  |
